Results on one molecule are retold here after PMC9578143, “Small-Molecule Ebselen Binds to YTHDF Proteins Interfering with the Recognition of N^6-Methyladenosine-Modified RNAs” (ACS Pharmacology & Translational Science, 2022).

Entries after “also recorded” stand apart in the source; their conditions may differ.

The subject of assay [1] is m6A-mRNAs (CREBBP, YTHDF2, GATA2, HNRNPF) in PC-3 cells. The experiment in a line: m6A mRNA stability measurement with actinomycin D. As to conditions: 4 h co-treatment with actinomycin D, versus DMSO, listed as ebselen. The assay is classed as cell-based, human. As for the experimental part: PC-3 cells were plated on a six-well dish. At 70–80% confluency, cells were treated with […] actinomycin D or vehicle (DMSO) to inhibit transcription in combination with 50 μM ebselen for 4 h before collection. As a control, cells were treated with actinomycin D or vehicle (DMSO) for 4 h. Total RNA was isolated from cells using TRIzol according to the manufacturer’s instructions. For each condition, the same amount of total RNA was reverse-transcribed to cDNA (2 μg) using the SuperScript IV First-Strand kit. Oligo-dT primers were used during the cDNA synthesis step. This allowed us to selectively convert to cDNA the amount of intact RNA still present in cells upon actinomycin D treatment while avoiding the conversion of fragmented RNA to cDNA. qRT-PCR experiments were performed in duplicates and normalized on a stable mRNA, GAPDH.

In a further assay the target is T1, YTHDF1 in HEK293T cells (Homo sapiens, UniProt Q9BYJ9).
T1 construct: endogenous in cells; host or cells: HEK293T
T1 sequence (Q9BYJ9 1-559): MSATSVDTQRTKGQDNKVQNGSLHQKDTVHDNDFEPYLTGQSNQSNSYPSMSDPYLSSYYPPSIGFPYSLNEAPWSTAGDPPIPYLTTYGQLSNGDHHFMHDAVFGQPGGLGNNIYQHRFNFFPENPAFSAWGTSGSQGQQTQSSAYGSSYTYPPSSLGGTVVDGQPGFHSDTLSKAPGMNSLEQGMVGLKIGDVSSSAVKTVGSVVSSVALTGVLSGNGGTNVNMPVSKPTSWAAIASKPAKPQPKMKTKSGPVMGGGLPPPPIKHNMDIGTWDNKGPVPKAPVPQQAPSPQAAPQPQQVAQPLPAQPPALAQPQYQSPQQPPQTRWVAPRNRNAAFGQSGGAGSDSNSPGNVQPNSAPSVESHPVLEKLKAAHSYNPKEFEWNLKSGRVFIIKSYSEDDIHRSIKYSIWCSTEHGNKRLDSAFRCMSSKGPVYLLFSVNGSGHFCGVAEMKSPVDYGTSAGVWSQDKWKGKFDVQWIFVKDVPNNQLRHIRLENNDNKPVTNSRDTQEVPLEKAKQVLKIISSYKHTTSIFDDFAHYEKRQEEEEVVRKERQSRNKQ
Nature of the assay: Cellular thermal shift assay (CETSA). The following applies: 50 μM, 3 h, versus DMSO, listed as Ebselen. The assay is classed as cell-based. As for the experimental part: HEK293T cells were seeded on 100 mm cell culture plate/s and allowed to adhere overnight. At 80% of confluency, cells were treated with 50 μM ebselen or DMSO as a control and incubated for 3 h at 37 °C in the CO2 incubator. Cells were centrifuged and resuspended in PBS and the protease inhibitor, at a concentration of (0.5–1) × 10^6 cells /100 μL of suspension. Lysates were divided into 9–10 aliquots of 100 μL into 0.2 mL microcentrifuge tubes and incubated at a temperature gradient on a PCR machine for 3 min. After incubation, lysates were frozen and thawed five times in dry ice and at 27 °C for 3 min each. All tubes were then centrifuged at 4 °C for 20 min at 12,000 rpm. Supernatants were then collected and transferred to clean tubes with a loading buffer 5×, heated for 10 min at 95 °C, and detected with Western Blot. The blot was then plotted with a YTHDF1 (Proteintech, 17479-1-AP) and actin (Cell Signaling, 12620S) primary antibody and subsequently with anti-Rabbit HRP (Santa Cruz, sc-2357) and anti-mouse HRP (Thermo Fisher, 61-6520). Chemiluminescent detection was performed using Amersham ECL Prime (GE Healthcare).

The subject of assay [2] is YTHDF1-3, ALKBH5 and METTL3 in PC-3 cells. The experiment in a line: Western blot of the epitranscriptome apparatus. The class given is cell-based, human. As to conditions: PC-3 cells, 24, 48 and 72 h, 10, 25, 50 μM; listed as ebselen. As for the experimental part: Supplementary Figure 4. Protein level of the epitranscriptome apparatus and m6A level in PC-3 cells. (A) Representative western blot of YTHDF1-3, ALKBH5 and METTL3 in PC-3 cells after 24, 48 and 72 hours of ebselen treatment at three doses, 10, 25, 50 µM. (B) Quantification of the relative changes of YTHDF1-3, ALKBH5 and METTL3 in PC-3 cells after 24, 48 and 72 hours of ebselen treatment at three doses, 10, 25, 50 µM. […] Three biological replicates were performed. (C) Quantitative real-time PCR of YTHDF1-3, ALKBH5 and METTL3 in PC-3 cells after 24 hours of ebselen treatment at 10 µM.
Supplementary Figure 5. Caption: 2F o-Fc map (blue) is contoured at 1s for Ebselen and Cys412 side chain. The selenium anomalous map is contoured at 3.5σ and shown in orange.
(1 picture or pasted object on this page, not shown here)

Turning to `O=c1c2ccccc2[se]n1-c1ccccc1` [Compound 1, 2-phenyl-1,2-benzisoselenazol-3(2H)-one], in assay [1], the “Stability of methylated mRNAs (in words)” value was “increase in mRNA stability; also recorded: increased the stability of methylated genes”. Further, on YTHDF1 in HEK293T cells, the “ΔTagg of YTHDF1 (CETSA)” value came to 3.48 °C. Also, the “Expression level of the proteins of the epitranscriptome apparatus (in words)” value in assay [2] is recorded as “No changes were observed”.
